In patent US12178842B2, “PCSK9 antagonist compounds” (MERCK SHARP & DOHME LLC, priority 2019, dated 2024) one finds Ki data, which are given here for 6 compounds.

Common to all, as to type: binding
Experiment [1] addresses T1, PCSK9 (Homo sapiens, UniProt Q8NBP7).
T1 construct: biotin (biotinylated); purchased
Description: PCSK9 Alexa FRET Ultra TR-FRET assay. Here is the method: A separate solution containing 1920 nM of the AlexaFluor tagged cyclic peptide is made in the same buffer system. […] The reaction is incubated at room temperature for at least two hours prior to fluorescence measurements using an Envision Multilabel Reader. IC50 values are determined by fitting data to a sigmoidal dose-response curve using nonlinear regression. Ki is then calculated from the Ic50 and the KD of AF cyclic peptide. Counts (B-counts) of the europium-labeled PCSK9 are followed to observe if compounds are adversely affecting PCSK9. A fall off of the B-counts is likely indicates a false positive of inhibition. Data from this procedure is reported as “Ki Ultra=‘numerical value’ (data reported is nanomolar)”
On the technique in general: Time-resolved FRET reads energy transfer from a long-lived donor to a nearby acceptor.

Experiment [2] addresses T1, PCSK9. Description: PCSK9 Alexa FRET Plus TR-FRET assay. As for the experimental part: A separate solution containing 1920 nM of the AlexaFluor tagged cyclic peptide is made in the same buffer system. […] The reaction is incubated at room temperature for at least two hours prior to fluorescence measurements using an Envision Multilabel Reader. IC50 values are determined by fitting data to a sigmoidal dose-response curve using nonlinear regression. Ki is then calculated from the Ic50 and the KD of AF cyclic peptide. Counts (B-counts) of the europium-labeled PCSK9 are followed to observe if compounds are adversely affecting PCSK9. A fall off of the B-counts is likely indicates a false positive of inhibition. Data from this procedure is reported as “P=‘numerical value’ (nanomolar)”

For experiment [3], the target named is T1, PCSK9. Description: PCSK9 Alexa FRET Standard TR-FRET assay. To be noted: Ki calculated from IC50 and KD of AF cyclic peptide Reagent A; 0.5 nM PCSK9, 20 nM AF cyclic peptide; read-out: Alexa FRET Stdt TR-FRET. Here is the method:
A solution containing 1 nM biotinylated PCSK9+2.5 nM Lance Streptavidin Europium (Strep-Eu) is made in 50 mM HEPES pH 7.4, 0.15 M NaCl, 5 mM CaCl2, 0.01% BSA, and 0.01% Surfactant P20. A separate solution containing 40 nM of the AlexaFluor tagged cyclic peptide is made in the same buffer system. An Echo is used to transfer 0.750 ul of compound to an assay plate followed by the addition of 15 ul of PCSK9+Stept-Eu and 15 ul of AF peptide. The final assay volume is 30.750 ul containing 0.5 nM PCSK9, 1.25 nM Strep-Eu, and 20 nM AF cyclic peptide. The reaction is incubated at room temperature for at least two hours prior to fluorescence measurements using an Envision Multilabel Reader. IC50 values are determined by fitting data to a sigmoidal dose-response curve using nonlinear regression. Ki is then calculated from the Ic50 and the KD of AF cyclic peptide. Counts (B-counts) of the europium-labeled PCSK9 are followed to observe if compounds are adversely PCSK9. A fall off of the B-counts likely indicates a false positive of inhibition. Data from this procedure is reported as “A=‘numerical value’ (nanomolar)”

Setting [4] is: Ki Ultra, calculated from IC50 and KD of AF cyclic peptide, 0.5 nM PCSK9, 960 nM AF cyclic peptide, read-out: Alexa FRET Ultra TR-FRET.
[5] abbreviates: Ki calculated from IC50 and KD of AF cyclic peptide Reagent B, 0.5 nM PCSK9, 960 nM AF cyclic peptide, read-out: Alexa FRET Plus TR-FRET.

T1 sequence (Q8NBP7 153-692): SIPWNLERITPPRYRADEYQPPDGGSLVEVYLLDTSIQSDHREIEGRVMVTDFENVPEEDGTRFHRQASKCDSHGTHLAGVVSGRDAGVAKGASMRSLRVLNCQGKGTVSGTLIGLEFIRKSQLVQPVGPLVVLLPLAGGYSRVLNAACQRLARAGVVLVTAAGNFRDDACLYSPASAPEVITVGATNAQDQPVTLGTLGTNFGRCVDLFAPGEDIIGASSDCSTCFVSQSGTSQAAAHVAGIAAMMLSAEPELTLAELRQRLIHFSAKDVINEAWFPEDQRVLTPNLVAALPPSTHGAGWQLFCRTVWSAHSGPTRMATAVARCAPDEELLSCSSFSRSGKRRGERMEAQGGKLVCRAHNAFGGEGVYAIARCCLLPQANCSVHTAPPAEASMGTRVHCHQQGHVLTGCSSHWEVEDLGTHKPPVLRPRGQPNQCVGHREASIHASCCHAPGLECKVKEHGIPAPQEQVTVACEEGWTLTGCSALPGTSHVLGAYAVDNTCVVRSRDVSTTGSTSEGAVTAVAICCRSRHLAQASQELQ

Consider `COc1ccc(C[C@@H]2NC(=O)[C@H]([C@@H](C)O)NC(=O)[C@@H]3[C@@H]4CCN3C(=O)[C@@H]3Cc5cn(c6ccc(F)cc56)CCCCCCN(Cc5ccc(cc5)CCNC(=O)[C@]5(C)CCCN5C2=O)C(=O)CCC(=O)N[C@@H](C)C(=O)N[C@H](CNC(=O)COCCOCC[N+](C)(C)CCOCCNC(=O)COCCOCCNC(=O)COCCOCCNC(=O)CC[C@H](NC(=O)CC[C@H](NC(=O)CCCCCCCCCCCCCCCCC(=O)O)C(=O)O)C(=O)O)C(=O)N[C@@H](Cc2cccc(c2)CNC(=O)CO4)C(=O)N3)cc1` [Ex-13], for which the Ki in experiment [1] (setting [4]) is 3 pM; in experiment [2] (setting [5]) it was less than 6 pM; in experiment [3], less than 1260 pM.

As to `COc1ccc(C[C@@H]2NC(=O)[C@H]([C@@H](C)O)NC(=O)[C@@H]3[C@@H]4CCN3C(=O)[C@@H]3Cc5cn(c6ccc(F)cc56)CCCCCCN(Cc5ccc(cc5)CCNC(=O)[C@]5(C)CCCN5C2=O)C(=O)CCC(=O)N[C@@H](C)C(=O)N[C@H](CNC(=O)COCCOCCNC(=O)COCCOCCNC(=O)CC[C@H](NC(=O)CC[C@H](NC(=O)CCOCCOCC[N+](C)(C)CCNC(=O)CCCCCCCCCCCCCCC(=O)O)C(=O)O)C(=O)O)C(=O)N[C@@H](Cc2cccc(c2)CNC(=O)CO4)C(=O)N3)cc1` [compound 37], the Ki in experiment [1] (setting [4]) was 6 pM; in experiment [2] (setting [5]), less than 6 pM; in experiment [3], less than 1260 pM.

Regarding `COc1ccc(C[C@@H]2NC(=O)[C@H]([C@@H](C)O)NC(=O)[C@@H]3[C@@H]4CCN3C(=O)[C@@H]3Cc5cn(c6ccc(F)cc56)CCCCCCN(Cc5ccc(cc5)CCNC(=O)[C@]5(C)CCCN5C2=O)C(=O)CCC(=O)N[C@@H](C)C(=O)N[C@H](CNC(=O)CC[C@H](NC(=O)CCOCCOCC[N+](C)(C)CCNC(=O)COCCOCCNC(=O)COCCOCCNC(=O)CC[C@H](NC(=O)CCCCCCCCCCCCCCCCC(=O)O)C(=O)O)C(=O)O)C(=O)N[C@@H](Cc2cccc(c2)CNC(=O)CO4)C(=O)N3)cc1` [Ex-8], the Ki is 8 pM in experiment [1], 16 pM in experiment [2] and less than 1260 pM in experiment [3].

`COc1ccc(C[C@@H]2NC(=O)[C@H]([C@@H](C)O)NC(=O)[C@@H]3[C@@H]4CCN3C(=O)[C@@H]3Cc5cn(c6ccc(F)cc56)CCCCCCN(Cc5ccc(cc5)CCNC(=O)[C@]5(C)CCCN5C2=O)C(=O)CCC(=O)N[C@@H](C)C(=O)N[C@H](CNC(=O)CCCCC[N+](C)(C)CCNC(=O)COCCOCCNC(=O)CCCCCCCCCCCCCCCCC(=O)O)C(=O)N[C@@H](Cc2cccc(c2)CNC(=O)CO4)C(=O)N3)cc1` [Example 1]: the Ki in experiment [1] was 7 pM; in experiment [2] it was less than 6 pM; in experiment [3], less than 1260 pM.

Turning to `COc1ccc(C[C@@H]2NC(=O)[C@H]([C@@H](C)O)NC(=O)[C@@H]3[C@@H]4CCN3C(=O)[C@@H]3Cc5cn(c6ccc(F)cc56)CCCCCCN(Cc5ccc(cc5)CCNC(=O)[C@]5(C)CCCN5C2=O)C(=O)CCC(=O)N[C@@H](C)C(=O)N[C@H](CNC(=O)CCOCCOCC[N+](C)(C)CCNC(=O)COCCOCCNC(=O)COCCOCCNC(=O)C[C@H](NC(=O)CCCCCCCCCCCCCCCCC(=O)O)C(=O)O)C(=O)N[C@@H](Cc2cccc(c2)CNC(=O)CO4)C(=O)N3)cc1` [Ex-15], the Ki in experiment [1] was 5 pM; in experiment [2], less than 6 pM; in experiment [3] it was less than 1260 pM.

With `COc1ccc(C[C@@H]2NC(=O)[C@H]([C@@H](C)O)NC(=O)[C@@H]3[C@@H]4CCN3C(=O)[C@@H]3Cc5cn(c6ccc(F)cc56)CCCCCCN(Cc5ccc(cc5)CCNC(=O)[C@]5(C)CCCN5C2=O)C(=O)CCC(=O)N[C@@H](C)C(=O)N[C@H](CNC(=O)CCOCCOCC[N+](C)(C)CCNC(=O)CC[C@H](NC(=O)COCCOCCNC(=O)CC[C@H](NC(=O)CCCCCCCCCCCCCCCCC(=O)O)C(=O)O)C(=O)O)C(=O)N[C@@H](Cc2cccc(c2)CNC(=O)CO4)C(=O)N3)cc1` [Ex-54], the figures for the Ki in experiment [1] (setting [4]), in experiment [2] (setting [5]) and in experiment [3] were 14 pM, 21 pM and less than 1260 pM, respectively.
